From patent publication US20100119529A1, “ELASTIN-LIKE POLYMER DELIVERY VEHICLES” (priority 2006, published 2010)

Assays:
[1] = system: MCF-7 human breast cancer cells; experiment: Cytotoxicity test, XTT assay; assay type: cell-based; design: Average (XTT metabolic signal): unit not given here; settings: for IC50: 74 hr incubation, XTT
Method: MCF-7 human breast cancer cells (ATCC HTB-22) were plated in 96-well plates at an initial density of 5000 cells per well in 90 μL of RMPI 1640 supplemented with 10% fetal bovine serum, 100 IU penicillin, and 100 μg/mL streptomycin, 2 mM L-glutamine, and maintained at 37° C. and 5% CO2 atmosphere. After 24 hr, stock solutions of 17-GAOH in DMSO and GA-(VKG)8ELP1-120 were diluted 10-fold with growth media and added to wells (6 wells) as […] (1% v/v final DMSO concentration). The cells were incubated with the compounds for 74 hr and the metabolic rate was determined using an XTT™ assay kit (Sigma) according to the manufacturer's instructions. The concentrations inhibiting cell growth by 50% (IC50) were determined by fixed Hill slope regression with SIGMA PLOT™ 2004 (Systat Software, Inc.).

mouse mammary tumors = settings: 43° C. hyperthermia; cited from earlier work

SMILES | IC50 ([1]; test 1) [nM] | Average (XTT metabolic signal) ([1]; test 1, final concentration 0.1 nM) | Average (XTT metabolic signal) ([1]; test 1, final concentration 1 nM) | Average (XTT metabolic signal) ([1]; test 1, final concentration 10 nM) | Average (XTT metabolic signal) ([1]; test 1, final concentration 100 nM) | Average (XTT metabolic signal) ([1]; test 1, final concentration 1,000 nM) | Average (XTT metabolic signal) ([1]; test 1, final concentration 10,000 nM) | IC50 ([1]; test 2) [nM] | Average (XTT metabolic signal) ([1]; test 2, final concentration 50 nM) | Average (XTT metabolic signal) ([1]; test 2, final concentration 100 nM) | Average (XTT metabolic signal) ([1]; test 2, final concentration 250 nM) | Average (XTT metabolic signal) ([1]; test 2, final concentration 500 nM) | Average (XTT metabolic signal) ([1]; test 2, final concentration 1,000 nM) | Average (XTT metabolic signal) ([1]; test 2, final concentration 2,000 nM) | increase of thermal enhancement ratio (TER) (mouse mammary tumors)
CO[C@H]1/C=C\C=C(/C)C(=O)NC2=CC(=O)C(NCCO)=C(C[C@@H](C)C[C@H](OC)[C@H](O)[C@@H](C)/C=C(\C)[C@@H]1OC(N)=O)C2=O [17-HEA-DMGA, 17-β-hydroxyethylamino-17-demethoxygeldanamycin] | 855 | 1158 | 1288 | 1274 | 1588 | 344 | 114 | 731 | 788.5 | 999.7 | 774.3 | 515.0 | 297.5 | 46.9 | –
N.N.[Cl][Pt][Cl] [Cisplatin] | – | – | – | – | – | – | – | – | – | – | – | – | – | – | 1.4-5.0 fold
